Earlier results in US20110165699A1 (priority 2009, published 2011).

inter-patient variability, CV in AUCs (Sasaki, Jpn. J. Cancer 1995): 38.91% | intra- and inter-individual pharmacokinetic variability (has been reported): more than 40 fold
Compound: CCc1c2c(nc3ccc(O)cc13)-c1cc3c(c(=O)n1C2)COC(=O)[C@]3(O)CC [SN-38, 7-ethyl-10-hydroxy-camptotheen]
